Test results published in patent publication US20210008047A1, “TARGETING MINIMAL RESIDUAL DISEASE IN CANCER WITH RXR ANTAGONISTS” (VIB VZW, priority 2018, published 2021).

Tests used:
MM052 cells = experiment: Colony assay and Cell Titer Glo assay in short-term melanoma culture MM052; format: cell-based, human
Protocol: E) and Cell Titer Glo assay performed after 6 days after incubation of the short culture melanoma line MM052 with MEK inhibitor trametinib (TRA; 2 nM), RXRG agonist bexarotene (BEX; 1 uM), FAK inhibitor PF-562271 (1 uM) and RXRG antagonist HX531 (2 uM).
Cells were grown to near confluency on 12well plates and treated with the indicated drug combinations for the indicated time period. Cells were washed once with PBS, stained with crystal violet (1% crystal violet w/v, 35% methanol v/v) for 15 min, washed with PBS and destained in tap water.
2500 cells were plated onto a 96well plate and treated with the indicated drug combinations for the indicated time period. Cell Titer Glo assay was performed according to the manufacturer's instruction (Promega) and luminescence was measured on a VictorX3 (Perkin Elmer).

MEL006 cells = experiment: FACS of GFRA2-positive (NDTC) cells in drug-exposed MEL006 cultures
Protocol: Cells from dissociated MEL006 tumors were grown in 5% CO2 at 37° C. in F10 (Gibco, Life Technologies) supplemented with 10% FBS (Gibco, Life Technologies) and 0.25% Glutamax (Gibco, Life Technologies).
Cells were incubated with GFRA2 antibody (AF429 R&D 3 μg/mL) for 45 minutes at room temperature, followed by anti-goat secondary antibody conjugated with Alexa Fluor® 594 (ThermoFisherScientific) for 30 min at room temperature. Cells were resuspended in FACS sorting buffer (culture medium supplied with 1% EDTA 100 mM).
To assess whether emergence of NDTCs upon MAPK inhibition is cancer cell intrinsic or depends on micro-environmental cues, we exposed 2D cultures of Me1006 to near IC25 concentrations of dabrafenib and trametinib for 10 days.

SMILES: C=C(c1ccc(C(=O)O)cc1)c1cc2c(cc1C)C(C)(C)CCC2(C)C [bexarotene]
- Sensitivity of cells to a combination of trametinib/FAK-inhibitors (MM052 cells; MM52): increased
- Long-term growth inhibition (MM052 cells; MM52, bexarotene alone): did not induce measurable long-term growth inhibition
- Sensitivity of cells to trametinib (MM052 cells; MM52, bexarotene at concentrations as low as 10 nM): significantly decreased
- Cells in which cell death occurred (MM052 cells; bexarotene with trametinib/FAK-inhibitors, after 3 days of treatment (data not shown)): ~100%

SMILES: CN1c2ccc([N+](=O)[O-])cc2N=C(c2ccc(C(=O)O)cc2)c2cc3c(cc21)C(C)(C)CCC3(C)C [HX531]
- Drug-dependent induction of GFRA2-positive cells (MEL006 cells; in the presence of IC50 concentrations of the BRAF and MEK-inhibitors): completely inhibited
- Sensitization of cells to trametinib (MM052 cells; MM52, HX531 2 uM, trametinib 2 nM per FIG. 7 legend): sensitized

SMILES: CN(c1ncccc1CNc1nc(Nc2ccc3c(c2)CC(=O)N3)ncc1C(F)(F)F)S(C)(=O)=O [PF-562271]
- Drug-dependent emergence of the GFRA2-high cell population (MEL006 cells; FAK inhibitor together with DT, dose-dependent): diminished
- Sensitivity of GFRA2high cells to FAK inhibitors (MEL006 cells; MEL006 cells treated with DT and or FAK inhibitors, then FACS sorted for GFRA2): sensitive
